Source: ChEMBL document CHEMBL1155325, “Design and synthesis of (2R,3S)-iodoreboxetine analogues for SPECT imaging of the noradrenaline transporter” (Bioorg Med Chem Lett, 2009)

Key:
Type in all cases: tissue-based
[1] = biological target: Sodium-dependent dopamine transporter (Rattus norvegicus, UniProt P23977); assay: Displacement of [3H]WIN-35428 from DAT in Sprague-Dawley rat brain after 2 hrs by liquid scintillation analysis
[2] = biological target: Sodium-dependent serotonin transporter (Rattus norvegicus, UniProt P31652); assay: Displacement of [3H]citalopram from SERT in Sprague-Dawley rat brain after 2 hrs by liquid scintillation analysis
Sequence of Sodium-dependent serotonin transporter (P31652 whole entry): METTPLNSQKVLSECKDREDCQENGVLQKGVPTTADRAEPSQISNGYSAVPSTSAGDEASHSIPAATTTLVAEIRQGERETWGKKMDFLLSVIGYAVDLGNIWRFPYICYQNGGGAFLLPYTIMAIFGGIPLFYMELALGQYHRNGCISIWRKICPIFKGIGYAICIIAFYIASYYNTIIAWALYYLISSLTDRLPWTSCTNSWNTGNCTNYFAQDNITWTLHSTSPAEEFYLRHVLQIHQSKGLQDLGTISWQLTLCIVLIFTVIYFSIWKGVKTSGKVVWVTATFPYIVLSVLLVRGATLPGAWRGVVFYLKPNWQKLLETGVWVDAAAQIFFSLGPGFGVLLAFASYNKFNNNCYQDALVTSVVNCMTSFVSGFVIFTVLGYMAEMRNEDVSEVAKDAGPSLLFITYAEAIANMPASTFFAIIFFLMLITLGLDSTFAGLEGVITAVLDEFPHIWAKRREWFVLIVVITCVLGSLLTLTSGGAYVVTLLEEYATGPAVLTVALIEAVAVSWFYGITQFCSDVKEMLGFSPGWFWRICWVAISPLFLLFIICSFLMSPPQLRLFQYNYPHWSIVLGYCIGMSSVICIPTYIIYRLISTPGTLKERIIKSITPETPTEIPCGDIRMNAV

Transporter = Transporter (Rattus norvegicus, UniProt Q63380); assay: Displacement of [3H]nisoxetine from NAT in Sprague-Dawley rat brain after 4 hrs by liquid scintillation analysis
Sequence of Transporter (Q63380 whole entry): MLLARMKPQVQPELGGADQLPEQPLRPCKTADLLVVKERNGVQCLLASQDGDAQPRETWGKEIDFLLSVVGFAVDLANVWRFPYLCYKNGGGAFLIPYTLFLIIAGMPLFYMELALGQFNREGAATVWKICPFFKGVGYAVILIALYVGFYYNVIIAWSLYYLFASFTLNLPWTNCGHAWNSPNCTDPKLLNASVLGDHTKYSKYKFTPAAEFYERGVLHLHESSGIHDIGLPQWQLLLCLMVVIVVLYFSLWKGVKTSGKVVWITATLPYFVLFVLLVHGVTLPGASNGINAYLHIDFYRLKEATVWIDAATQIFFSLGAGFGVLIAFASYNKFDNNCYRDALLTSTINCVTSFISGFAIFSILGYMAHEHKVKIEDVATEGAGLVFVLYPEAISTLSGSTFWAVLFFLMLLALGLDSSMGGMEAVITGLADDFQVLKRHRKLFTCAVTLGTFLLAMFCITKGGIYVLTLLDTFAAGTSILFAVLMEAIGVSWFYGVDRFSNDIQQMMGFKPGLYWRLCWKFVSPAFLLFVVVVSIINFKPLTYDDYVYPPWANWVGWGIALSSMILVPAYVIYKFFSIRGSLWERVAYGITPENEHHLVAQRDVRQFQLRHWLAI

Sequence of Sodium-dependent dopamine transporter (P23977 whole entry): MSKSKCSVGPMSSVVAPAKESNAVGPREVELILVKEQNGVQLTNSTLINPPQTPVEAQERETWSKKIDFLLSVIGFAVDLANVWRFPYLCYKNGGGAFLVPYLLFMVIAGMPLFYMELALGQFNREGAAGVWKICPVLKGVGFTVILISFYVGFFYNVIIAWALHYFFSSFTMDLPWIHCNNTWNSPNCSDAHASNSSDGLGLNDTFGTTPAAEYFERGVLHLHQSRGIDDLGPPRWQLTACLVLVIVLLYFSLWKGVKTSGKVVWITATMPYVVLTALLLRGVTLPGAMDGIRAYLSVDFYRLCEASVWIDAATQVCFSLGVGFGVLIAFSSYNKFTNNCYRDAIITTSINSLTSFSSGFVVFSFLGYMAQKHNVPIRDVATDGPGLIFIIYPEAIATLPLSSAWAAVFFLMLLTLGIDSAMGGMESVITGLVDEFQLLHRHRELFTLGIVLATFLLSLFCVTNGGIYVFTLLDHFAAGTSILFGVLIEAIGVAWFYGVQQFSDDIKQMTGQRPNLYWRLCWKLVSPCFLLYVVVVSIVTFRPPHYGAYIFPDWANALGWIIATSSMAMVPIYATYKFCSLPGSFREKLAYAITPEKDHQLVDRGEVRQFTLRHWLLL

With `Ic1ccccc1O[C@@H](c1ccccc1)[C@H]1CNCCO1` the Ki [1] was 526 nM, the Ki [2] was 51.5 nM and the Ki (Transporter) was 8.4 nM.

With `CCOc1ccccc1O[C@@H](c1ccc(I)cc1)[C@H]1CNCCO1` the Ki (Transporter) was 58.2 nM.

`Ic1cccc(O[C@@H](c2ccccc2)[C@H]2CNCCO2)c1` gave a Ki [1] of 1900 nM, a Ki [2] of 154 nM and a Ki (Transporter) of 1700 nM.

In the case of `Ic1ccc(O[C@@H](c2ccccc2)[C@H]2CNCCO2)cc1`, the Ki [1] is reported as 2100 nM, the Ki [2] is reported as 34.5 nM and the Ki (Transporter) is reported as 1100 nM.

`Ic1ccccc1O[C@@H](c1ccccc1)[C@@H]1CNCCO1` was tested, and the Ki (Transporter) was 0.84 nM.

In the case of `CCOc1ccccc1O[C@@H](c1ccc(I)cc1)[C@@H]1CNCCO1`, the Ki (Transporter) is reported as 53.8 nM.
